Laboratory results as given in patent publication US20240374692A1, “A NOVEL ACYLATED INSULIN ANALOG” (SUNSHINE LAKE PHARMA CO., LTD., priority 2021, published 2024).

Legend:
[1] = test system: STZ-induced type I diabetes mellitus (T1DM) C57BL/6 mice; assay: Hypoglycemic effect, repeated administration (three times) to STZ-induced T1DM C57BL/6 mice (Example 6); format: in vivo; set-up: key to random blood glucose: blood glucose in mmol/L; settings: for random blood glucose: 500 nmol/Kg S.C. three times, Mean ± SEM, n = 7
Experimental: SPF grade C57BL/6 mice were reared in a suitable rearing box in a barrier environment, with a rearing temperature of 20-26° C., a humidity of 40-70%, a time between day and night of 12 h/12 h, and the mice had free access to standard food and autoclaved sterilization water. After the 3-day quarantine period and the 2-day acclimation period, the mice were fasted for 12 h, and the mice were injected intraperitoneally with streptozotocin solution (STZ, 13 mg/mL, in citrate buffer) at 130 mg/kg. 3 Days and 7 days after administration of streptozotocin, random blood glucose and fasting blood glucose were detected, and the random blood glucose value above 25 mmol/L and fasting blood glucose value above 11.1 mmol/L were selected as T1DM model mice for follow-up experiments. On the day before administration, random blood glucose was monitored and mice were weighed. Mice were divided into 6 groups according to random blood glucose and body weight.
Subcutaneous administration (S.C.) was used to administer the corresponding vehicle or drug, once every 4-5 days, for a total of 3 administrations. During the experiment, the animals were allowed to eat and drink water freely. The random blood glucose before the first administration, and 0.25, 0.5, 1, 2, 4, 6, 8, 10, 24, 48, 72, and 96 h after administration were assessed, as well as the random blood glucose before the second and third administration, and 0.5, 1, 2, 6, 24, 48, 72, 96 and 120 h after administration.
All raw data were entered into Excel files and expressed as Mean±SEM. Statistical analysis of data was performed using Graphpad Prism 7.0 software, one-way or two-way ANOVA comparison method, and P<0.05 was used as the criterion for significant differences.

[2] = mouse, in vivo, sc, 10 nmol/kg

## A14E, B16E, B25H, B29K(N(ε)-COOH(CH2)18CO-L-Lys-CO(CH2)2CO—(OEG)2), desB30 human insulin analog [Insulin-a3]
[1]; 500 nmol/Kg S.C.
  effective glucose control time: 96 to 120 h
[1]; Day 0 (1st)
  random blood glucose: 31.8 ± 3.2
[1]; Day 1
  random blood glucose: 20.7 ± 5.2
[1]; Day 4 (2nd)
  random blood glucose: 29.7 ± 3.7
[1]; Day 5
  random blood glucose: 20.1 ± 5.4
[1]; Day 9 (3rd)
  random blood glucose: 27.7 ± 6.2
[1]; Day 10
  random blood glucose: 16.0 ± 9.4
[1]; Day 14
  random blood glucose: 27.4 ± 6.3
[1]; 500 nmol/Kg S.C., after the first and second administrations
  time after administration at which blood glucose returned to normal level: 96 h
[1]; 500 nmol/Kg S.C., after the third administration
  time after administration at which blood glucose returned to normal level: 120 h
[1]; Icodec 250, 500 and 1000 nmol/kg, Insulin-a3 and Insulin-a10 500 nmol/Kg
  time after each administration at which blood glucose reached the lowest level: 24 h
[1]; test drug 500 nmol/Kg S.C.
  glucose control effect compared with the Icodec-500 nmol/kg group: better
  glucose control effect compared with the Icodec-1000 nmol/kg group: slightly worse
[2]
  AUClast: 12300 ng·h/mL
  T1/2: 18.6 h
